Assay results published in patent publication US3956336A, “9-Alkoxy-5-methyl-6,7-benzomorphans” (Bristol-Myers Company, priority 1975, dated 1976).

Tests used:
Format in all cases: in vivo
[1] = test system: phenylquinone induced writhing; test: Phenylquinone writhing, agonist activity, mouse; conditions: subcutaneous, 50 percent reduction in number of writhing, as free base; for ED50: sc
Protocol: (§1) In vivo testing was conducted on various compounds of the instant invention in the form of their respective soluble salts to determine their agonist and/or antagonist properties. The figures reported are the number of milligrams/kilogram of body weight of compound that produced an agonist or antagonist effect in 50% of the mice and rats so tested (ED50). All data is obtained by subcutaneous administration.
(§2) ^1 A 50 percent reduction in number of phenylquinone induced writhing
(§3) (Siegmund, E. A. et al., Proc. Soc. Biol. & Med. 95, 729; 1957).

[2] = test system: analgesic effect induced by morphine; test: animal or person; conditions: subcutaneous, morphine 15 mg./kg. sc., 50 percent reduction of analgesic effect, as free base; for ED50: rat, read-out: ED50 Antagonist Activity, Morphine Antagonism Rat Tail Flick
Protocol: as §1
(15 mg./kg. sc.) as measured by the rat tail flick procedure (Harris, L.
S. and Pierson, A. K., J. Pharmacol. & Expt. Therap., 143, 141; 1964).

[3] = test system: Straub Tail induced by oxymorphone; test: Antagonism of oxymorphone-induced Straub Tail; conditions: mice, subcutaneous, oxymorphone 2 mg./kg. sc., as free base; for ED50: Mus musculus, read-out: ED50 Antagonist Activity, Oxymorphone Straub Tail
Protocol: as §1
^2 Antagonism of Straub Tail induced by oxymorphone (2 mg./kg. sc.) i

[4] = test system: phenylquinone induced writhing; test: Phenylquinone writhing, agonist activity, rat; conditions: subcutaneous, 50 percent reduction in number of writhing, as free base
Protocol: as §1, §2, §3

[5] = test system: righting reflex loss induced by oxymorphone; test: animal or person; conditions: rats, subcutaneous, oxymorphone 1.5 mg./kg. sc., as free base; for ED50: Rattus norvegicus, read-out: ED50 Antagonist Activity, Oxymorphone Narcosis
Protocol: as §1
^3 Antagonism of righting reflex loss induced by oxymorphone (1.5
mg./kg. sc.) in 50 percent of rats.

CCCC12CCN(CC3CC3)C(Cc3ccc(O)cc31)C2OC (racemic) [dl-XIIn, 2-cyclopropylmethyl-2'-hydroxy-9α-methoxy-5-propyl-6,7-benzomorphan]
ED50 [1]: 0.2 mg/kg | ED50 [2]: 0.033 mg/kg

COC1(C)C2Cc3ccc(O)cc3C1(C)CCN2CC1CCC1 (racemic) [dl-XIIv, 2-Cyclobutylmethyl-5,9β-dimethyl-2'-hydroxy-9β-methoxy-6,7-benzomorphan]
ED50 Agonist Activity, Phenylquinone Writhing, Mouse [1]: 0.19 mg/kg | ED50 Antagonist Activity, Oxymorphone Straub Tail [3]: 7.5 mg/kg

CO[C@H]1[C@H]2Cc3ccc(O)cc3[C@]1(C)CCN2CC1CC1 (relative stereo) [dl-XIIa, 2-Cyclopropylmethyl-2'-hydroxy-9α-methoxy-5-methyl-6,7-benzomorphan]
ED50 [1]: 0.087 mg/kg | ED50 ([4]; sc): 0.034 mg/kg | ED50 [3]: 0.24 mg/kg | ED50 [5]: 0.04 mg/kg | ED50 [2]: 0.06 mg/kg

CO[C@@]1(C)[C@H]2Cc3ccc(O)cc3[C@]1(C)CCN2CC1CC1 (relative stereo) [dl-XIIb, 2-Cyclopropylmethyl-5,9β-dimethyl-2'-hydroxy-9α-methoxy-6,7-benzomorphan]
ED50 [1]: 1.25 mg/kg | ED50 [3]: 0.16 mg/kg | ED50 [5]: ~0.017 mg/kg | ED50 [2]: 0.011 mg/kg

CO[C@@]1(C)[C@H]2Cc3ccc(O)cc3[C@]1(C)CCN2CC1CCC1 (relative stereo) [dl-XIIc, 2-Cyclobutylmethyl-5,9β-dimethyl-2'-hydroxy-9α-methoxy-6,7-benzomorphan]
ED50 [1]: 2.18 mg/kg | ED50 [3]: 1.25 mg/kg

CCO[C@H]1[C@H]2Cc3ccc(O)cc3[C@]1(C)CCN2CC1CC1 (relative stereo) [dl-XIId, 2-Cyclopropylmethyl-9α-ethoxy-2'-hydroxy-5-methyl-6,7-benzomorphan]
ED50 [1]: 0.33 mg/kg | ED50 [3]: 0.32 mg/kg | ED50 [2]: 0.029 mg/kg

C=CCO[C@H]1[C@H]2Cc3ccc(O)cc3[C@]1(C)CCN2CC1CC1 (relative stereo) [dl-XIIe, 9α-Allyloxy-2-cyclopropylmethyl-2'-hydroxy-5-methyl-6,7-benzomorphan]
ED50 [1]: 5.3 mg/kg | ED50 [3]: ~0.63 mg/kg

C=CC[C@]12CCN(CC3CC3)[C@H](Cc3ccc(O)cc31)[C@@H]2OC (relative stereo) [dl-XIIm, 5-Allyl-2-cyclopropylmethyl-2'-hydroxy-9α-methoxy-6,7-benzomorphan]
ED50 [1]: 0.026 mg/kg | ED50 [2]: 0.046 mg/kg

CO[C@]1(C)[C@H]2Cc3ccc(O)cc3[C@]1(C)CCN2CC1CC1 (relative stereo) [dl-XIIr, 2-Cyclopropylmethyl-5,9α-dimethyl-2'-hydroxy-9β-methoxy-6,7-benzomorphan]
ED50 [1]: 1.8 mg/kg | ED50 [3]: 3.5 mg/kg

CO[C@@H]1[C@H]2Cc3ccc(O)cc3[C@]1(C)CCN2CC1CC1 (relative stereo) [dl-XIIt, 2-Cyclopropylmethyl-2'-hydroxy-9β-methoxy-5-methyl-6,7-benzomorphan]
ED50 [1]: ~20 mg/kg | ED50 [3]: ~7 mg/kg | ED50 [2]: 0.18 mg/kg

COC1C2Cc3ccc(O)cc3C1(C)CCN2CC1CC1 (single isomer, unassigned; (-)) [l-XIIa, (-)-2-Cyclopropylmethyl-2'-hydroxy-9α-methoxy-5-methyl-6,7-benzomorphan]
ED50 Agonist Activity, Phenylquinone Writhing, Mouse [1]: 0.053 mg/kg | ED50 Agonist Activity, Phenylquinone Writhing, Rat [4]: 0.021 mg/kg | ED50 Antagonist Activity, Oxymorphone Straub Tail [3]: 0.10 mg/kg | ED50 Antagonist Activity, Oxymorphone Narcosis [5]: 0.017 mg/kg | ED50 Antagonist Activity, Morphine Antagonism Rat Tail Flick [2]: 0.019 mg/kg

CC(C)=CCN1CCC2(C)c3cc(O)ccc3CC1C2C (stereo not drawn) [Pentazocine, reference compound]
ED50 [5]: 10.1 mg/kg
